{"source": "patent US9156886B2", "about": "“Cyclosporin analogues for preventing or treating hepatitis C infection” (priority 2009, dated 2015)", "origin": "cited, not measured here", "key": {"cyclophilin A": {"molecular_target": "cyclophilin A (Homo sapiens, UniProt P62937)", "sequence (P62937 whole entry, species assumed)": "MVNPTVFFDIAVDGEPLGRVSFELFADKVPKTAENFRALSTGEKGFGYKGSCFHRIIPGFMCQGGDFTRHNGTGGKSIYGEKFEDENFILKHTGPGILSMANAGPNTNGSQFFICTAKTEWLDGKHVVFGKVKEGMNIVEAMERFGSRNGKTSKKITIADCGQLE"}, "hepatitis C virus": {"test_system": "hepatitis C virus", "conditions": "published results, Antiviral Research 65(3):A41 (2005)"}}, "data": [{"smiles": "C/C=C/C[C@@H](C)[C@@H](O)[C@H]1C(=O)N[C@@H](CC)C(=O)N(C)[C@H](C)C(=O)N(CC)[C@@H](C(C)C)C(=O)N[C@@H](C(C)C)C(=O)N(C)[C@@H](CC(C)C)C(=O)N[C@@H](C)C(=O)N[C@H](C)C(=O)N(C)[C@@H](CC(C)C)C(=O)N(C)[C@@H](CC(C)C)C(=O)N(C)[C@@H](C(C)C)C(=O)N1C", "note": "[DEBIO-025]", "values": [{"measurement": "binding affinity for cyclophilin A", "setting": "cyclophilin A", "value": "potent binding affinity"}, {"measurement": "inhibition of hepatitis C virus replication", "setting": "hepatitis C virus", "value": "potent and selective inhibition"}]}]}
